# Experimental data published in PubChem BioAssay (NCI).
#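 Protocol summary: plate cells (96-well), add compound at 5 concentrations, incubate 48 h, interpolate endpoints linearly. The concentration for full growth arrest is given as TGI.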
# What was measured:
# Assay in all cases: DTP human tumour cell line panel, 48 h
# LXFL 529 NSCLC = test system: LXFL 529 NSCLC
# A549 NSCLC = test system: A549 NSCLC
# RXF 393 renal = test system: RXF 393 renal
# XF 498 CNS = test system: XF 498 CNS
# CAKI-1 renal = test system: CAKI-1 renal
# SNB-19 CNS = test system: SNB-19 CNS
# OVCAR-5 ovarian = test system: OVCAR-5 ovarian
# SK-MEL-2 melanoma = test system: SK-MEL-2 melanoma
# SF-539 CNS = test system: SF-539 CNS
# RPMI-8226 leukemia = test system: RPMI-8226 leukemia
# UO-31 renal = test system: UO-31 renal
# DLD-1 colon = test system: DLD-1 colon
# SK-MEL-5 melanoma = test system: SK-MEL-5 melanoma
# UACC-62 melanoma = test system: UACC-62 melanoma
# HCT-116 colon = test system: HCT-116 colon
# DMS 273 small cell lung = test system: DMS 273 small cell lung
# KM20L2 colon = test system: KM20L2 colon
# SN12C renal = test system: SN12C renal
# NCI-H23 lung = test system: NCI-H23 lung
# OVCAR-4 ovarian = test system: OVCAR-4 ovarian
# HT29 colon = test system: HT29 colon
# HL-60(TB) leukemia = test system: HL-60(TB) leukemia
# OVCAR-3 ovarian = test system: OVCAR-3 ovarian
# U251 CNS = test system: U251 CNS
# DMS 114 small cell lung = test system: DMS 114 small cell lung
# NCI-H460 lung = test system: NCI-H460 lung
# ACHN renal = test system: ACHN renal
# IGROV1 ovarian = test system: IGROV1 ovarian
# TK-10 renal = test system: TK-10 renal
# SK-OV-3 ovarian = test system: SK-OV-3 ovarian
# SW-620 colon = test system: SW-620 colon
# A498 renal = test system: A498 renal
# OVCAR-8 ovarian = test system: OVCAR-8 ovarian
# HOP-62 NSCLC = test system: HOP-62 NSCLC
# K-562 leukemia = test system: K-562 leukemia
# MOLT-4 leukemia = test system: MOLT-4 leukemia
# UACC-257 melanoma = test system: UACC-257 melanoma
# HOP-92 NSCLC = test system: HOP-92 NSCLC
# EKVX NSCLC = test system: EKVX NSCLC
# SF-268 CNS = test system: SF-268 CNS
# HCT-15 colon = test system: HCT-15 colon
# M14 melanoma = test system: M14 melanoma
# SK-MEL-28 melanoma = test system: SK-MEL-28 melanoma
# M19-MEL melanoma = test system: M19-MEL melanoma
# SF-295 CNS = test system: SF-295 CNS
# CCRF-CEM leukemia = test system: CCRF-CEM leukemia
# HOP-18 NSCLC = test system: HOP-18 NSCLC
# SNB-78 CNS = test system: SNB-78 CNS
# 786-0 renal = test system: 786-0 renal
# COLO 205 colon = test system: COLO 205 colon
# LOX IMVI melanoma = test system: LOX IMVI melanoma
# SNB-75 CNS = test system: SNB-75 CNS
# KM12 colon = test system: KM12 colon
# NCI-H226 lung = test system: NCI-H226 lung
# HCC-2998 colon = test system: HCC-2998 colon
# MALME-3M melanoma = test system: MALME-3M melanoma
# NCI-H522 lung = test system: NCI-H522 lung
structure (smiles),measurement,setting,value
COc1ccc(C2N3CCCCC3[C@@H]3c4[nH]c5ccccc5c4CCN23)c(OC)c1 (stereo partly drawn),TGI,LXFL 529 NSCLC,49.9 µM
same,TGI,A549 NSCLC,> 100 µM
same,TGI,RXF 393 renal,34.6 µM
same,TGI,XF 498 CNS,28.2 µM
same,TGI,CAKI-1 renal,> 100 µM
same,TGI,SNB-19 CNS,> 100 µM
same,TGI,OVCAR-5 ovarian,79.7 µM
same,TGI,SK-MEL-2 melanoma,34.7 µM
same,TGI,SF-539 CNS,35.2 µM
same,TGI,RPMI-8226 leukemia,45.6 µM
same,TGI,UO-31 renal,74.1 µM
same,TGI,DLD-1 colon,> 100 µM
same,TGI,SK-MEL-5 melanoma,32.7 µM
same,TGI,UACC-62 melanoma,31 µM
same,TGI,HCT-116 colon,38 µM
same,TGI,DMS 273 small cell lung,34.3 µM
same,TGI,KM20L2 colon,41.9 µM
same,TGI,SN12C renal,33.8 µM
same,TGI,NCI-H23 lung,58.7 µM
same,TGI,OVCAR-4 ovarian,56.5 µM
same,TGI,HT29 colon,32.6 µM
same,TGI,HL-60(TB) leukemia,42 µM
same,TGI,OVCAR-3 ovarian,85.3 µM
same,TGI,U251 CNS,> 100 µM
same,TGI,DMS 114 small cell lung,38.4 µM
same,TGI,NCI-H460 lung,50.2 µM
same,TGI,ACHN renal,55.2 µM
same,TGI,IGROV1 ovarian,> 100 µM
same,TGI,TK-10 renal,69.1 µM
same,TGI,SK-OV-3 ovarian,92.3 µM
same,TGI,SW-620 colon,> 100 µM
same,TGI,A498 renal,30.1 µM
same,TGI,OVCAR-8 ovarian,> 100 µM
same,TGI,HOP-62 NSCLC,> 100 µM
same,TGI,K-562 leukemia,> 100 µM
same,TGI,MOLT-4 leukemia,49.9 µM
same,TGI,UACC-257 melanoma,72.4 µM
same,TGI,HOP-92 NSCLC,> 100 µM
same,TGI,EKVX NSCLC,> 100 µM
same,TGI,SF-268 CNS,53 µM
same,TGI,HCT-15 colon,> 100 µM
same,TGI,M14 melanoma,30.5 µM
same,TGI,SK-MEL-28 melanoma,36.9 µM
same,TGI,M19-MEL melanoma,37.4 µM
same,TGI,SF-295 CNS,> 100 µM
same,TGI,CCRF-CEM leukemia,63.3 µM
same,TGI,HOP-18 NSCLC,> 100 µM
same,TGI,SNB-78 CNS,49 µM
same,TGI,786-0 renal,> 100 µM
same,TGI,COLO 205 colon,43.2 µM
COc1ccc(C(=O)C/C(=N/NC(N)=S)C(=O)Nc2ccccc2)cc1,TGI,LOX IMVI melanoma,> 100 µM
same,TGI,LXFL 529 NSCLC,> 100 µM
same,TGI,SNB-75 CNS,> 100 µM
same,TGI,A549 NSCLC,> 100 µM
same,TGI,RXF 393 renal,> 100 µM
same,TGI,XF 498 CNS,> 100 µM
same,TGI,CAKI-1 renal,> 100 µM
same,TGI,SNB-19 CNS,> 100 µM
same,TGI,OVCAR-5 ovarian,> 100 µM
same,TGI,SK-MEL-2 melanoma,> 100 µM
same,TGI,SF-539 CNS,> 100 µM
same,TGI,RPMI-8226 leukemia,> 100 µM
same,TGI,UO-31 renal,> 100 µM
same,TGI,DLD-1 colon,> 100 µM
same,TGI,SK-MEL-5 melanoma,> 100 µM
same,TGI,UACC-62 melanoma,> 100 µM
same,TGI,HCT-116 colon,> 100 µM
same,TGI,DMS 273 small cell lung,> 100 µM
same,TGI,KM20L2 colon,> 100 µM
same,TGI,SN12C renal,> 100 µM
same,TGI,NCI-H23 lung,> 100 µM
same,TGI,OVCAR-4 ovarian,> 100 µM
same,TGI,HT29 colon,> 100 µM
same,TGI,KM12 colon,> 100 µM
same,TGI,HL-60(TB) leukemia,> 100 µM
same,TGI,OVCAR-3 ovarian,> 100 µM
same,TGI,U251 CNS,> 100 µM
same,TGI,DMS 114 small cell lung,> 100 µM
same,TGI,NCI-H460 lung,> 100 µM
same,TGI,ACHN renal,> 100 µM
same,TGI,IGROV1 ovarian,> 100 µM
same,TGI,NCI-H226 lung,> 100 µM
same,TGI,TK-10 renal,> 100 µM
same,TGI,SK-OV-3 ovarian,> 100 µM
same,TGI,HCC-2998 colon,> 100 µM
same,TGI,MALME-3M melanoma,> 100 µM
same,TGI,SW-620 colon,> 100 µM
same,TGI,A498 renal,> 100 µM
same,TGI,OVCAR-8 ovarian,> 100 µM
same,TGI,K-562 leukemia,> 100 µM
same,TGI,MOLT-4 leukemia,> 100 µM
same,TGI,UACC-257 melanoma,> 100 µM
same,TGI,EKVX NSCLC,> 100 µM
same,TGI,SF-268 CNS,> 100 µM
same,TGI,HCT-15 colon,> 100 µM
same,TGI,M14 melanoma,> 100 µM
same,TGI,SK-MEL-28 melanoma,> 100 µM
same,TGI,M19-MEL melanoma,> 100 µM
same,TGI,SF-295 CNS,> 100 µM
same,TGI,CCRF-CEM leukemia,> 100 µM
same,TGI,HOP-18 NSCLC,> 100 µM
same,TGI,SNB-78 CNS,> 100 µM
same,TGI,786-0 renal,> 100 µM
same,TGI,COLO 205 colon,> 100 µM
Cc1nc2ccccc2c(=O)n1/N=C(\N=Nc1ccccc1Cl)c1ccccc1,TGI,LOX IMVI melanoma,97.9 µM
same,TGI,A549 NSCLC,> 100 µM
same,TGI,RXF 393 renal,85.3 µM
same,TGI,XF 498 CNS,45.7 µM
same,TGI,CAKI-1 renal,43 µM
same,TGI,SNB-19 CNS,> 100 µM
same,TGI,SF-539 CNS,43.1 µM
same,TGI,RPMI-8226 leukemia,49.2 µM
same,TGI,UO-31 renal,> 100 µM
same,TGI,DLD-1 colon,> 100 µM
same,TGI,SK-MEL-5 melanoma,41.9 µM
same,TGI,UACC-62 melanoma,46.6 µM
same,TGI,DMS 273 small cell lung,> 100 µM
same,TGI,KM20L2 colon,48.7 µM
same,TGI,NCI-H522 lung,60.9 µM
same,TGI,NCI-H23 lung,> 100 µM
same,TGI,HT29 colon,47.6 µM
same,TGI,HL-60(TB) leukemia,38.3 µM
same,TGI,U251 CNS,> 100 µM
same,TGI,DMS 114 small cell lung,37.8 µM
same,TGI,NCI-H460 lung,> 100 µM
same,TGI,IGROV1 ovarian,38.9 µM
same,TGI,TK-10 renal,> 100 µM
same,TGI,SK-OV-3 ovarian,> 100 µM
same,TGI,SW-620 colon,63.9 µM
same,TGI,A498 renal,> 100 µM
same,TGI,OVCAR-8 ovarian,> 100 µM
same,TGI,HOP-62 NSCLC,> 100 µM
same,TGI,HOP-92 NSCLC,> 100 µM
same,TGI,EKVX NSCLC,78.3 µM
same,TGI,SF-268 CNS,> 100 µM
same,TGI,HCT-15 colon,> 100 µM
same,TGI,M14 melanoma,97.7 µM
same,TGI,SK-MEL-28 melanoma,> 100 µM
same,TGI,M19-MEL melanoma,67.2 µM
same,TGI,CCRF-CEM leukemia,55.2 µM
same,TGI,HOP-18 NSCLC,> 100 µM
same,TGI,786-0 renal,36.7 µM
same,TGI,COLO 205 colon,49.2 µM
CCP(C)(C)=O,TGI,LOX IMVI melanoma,> 100 µM
same,TGI,LXFL 529 NSCLC,> 100 µM
same,TGI,SNB-75 CNS,> 100 µM
same,TGI,A549 NSCLC,> 100 µM
same,TGI,RXF 393 renal,> 100 µM
same,TGI,XF 498 CNS,> 100 µM
same,TGI,CAKI-1 renal,> 100 µM
same,TGI,SNB-19 CNS,> 100 µM
same,TGI,OVCAR-5 ovarian,> 100 µM
same,TGI,SK-MEL-2 melanoma,> 100 µM
same,TGI,SF-539 CNS,> 100 µM
same,TGI,RPMI-8226 leukemia,> 100 µM
same,TGI,DLD-1 colon,> 100 µM
same,TGI,SK-MEL-5 melanoma,> 100 µM
same,TGI,UACC-62 melanoma,> 100 µM
same,TGI,DMS 273 small cell lung,> 100 µM
same,TGI,KM20L2 colon,> 100 µM
same,TGI,SN12C renal,> 100 µM
same,TGI,NCI-H23 lung,> 100 µM
same,TGI,OVCAR-4 ovarian,> 100 µM
same,TGI,HT29 colon,> 100 µM
same,TGI,KM12 colon,> 100 µM
same,TGI,OVCAR-3 ovarian,> 100 µM
same,TGI,U251 CNS,> 100 µM
same,TGI,DMS 114 small cell lung,> 100 µM
same,TGI,NCI-H460 lung,> 100 µM
same,TGI,ACHN renal,> 100 µM
same,TGI,IGROV1 ovarian,> 100 µM
same,TGI,TK-10 renal,> 100 µM
same,TGI,SK-OV-3 ovarian,> 100 µM
same,TGI,HCC-2998 colon,> 100 µM
same,TGI,MALME-3M melanoma,> 100 µM
same,TGI,SW-620 colon,> 100 µM
same,TGI,A498 renal,> 100 µM
same,TGI,OVCAR-8 ovarian,> 100 µM
same,TGI,HOP-62 NSCLC,> 100 µM
same,TGI,K-562 leukemia,> 100 µM
same,TGI,MOLT-4 leukemia,> 100 µM
same,TGI,UACC-257 melanoma,> 100 µM
same,TGI,EKVX NSCLC,> 100 µM
same,TGI,SF-268 CNS,> 100 µM
same,TGI,HCT-15 colon,> 100 µM
same,TGI,M14 melanoma,> 100 µM
same,TGI,SK-MEL-28 melanoma,> 100 µM
same,TGI,M19-MEL melanoma,> 100 µM
same,TGI,SF-295 CNS,> 100 µM
same,TGI,CCRF-CEM leukemia,> 100 µM
same,TGI,SNB-78 CNS,> 100 µM
same,TGI,786-0 renal,> 100 µM
same,TGI,COLO 205 colon,> 100 µM
